From US12497365B2, “4-pyridinyl formamide compound or derivative thereof, preparation method therefor, herbicidal composition and use thereof” (Qingdao Kingagroot Chemical Compound Co., Ltd., priority 2019, dated 2025)

Tests used:
Assay in all cases: Weeding effect in post-emergence stage
Format in all cases: in vivo
Settings in all cases: active ingredient 2000 g/ha, 3 weeks after application, fresh weight control rate
Abutilon theophrasti = test system: Abutilon theophrasti
Outline: (§1)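 Weeds sown in soil-filled pots under 0.5-2 cm cover were grown in a greenhouse and sprayed at the 2-3 leaf stage, 2 weeks after sowing. Compounds in acetone with Tween 80 and 1.5 liter/ha methyl oleate concentrate were applied at 2000, 1000, 500, 250 or 125 g/ha. Fresh weight control rate was scored after 3 weeks.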

[1] = test system: Amaranthus retroflexus L.
Outline: as §1

Chenopodium album = test system: Chenopodium album
Outline: as §1

Descurainia sophia = test system: Descurainia sophia
Outline: as §1

| SMILES | Weeding effect, activity level (growth control rate), Abutilon theophrasti (Abutilon theophrasti) | Weeding effect, activity level (growth control rate), Amaranthus retroflexus L. [1] | Weeding effect, activity level (growth control rate), Chenopodium album (Chenopodium album) | Weeding effect, activity level (growth control rate), Descurainia sophia (Descurainia sophia) |
| --- | --- | --- | --- | --- |
| Cc1cccc(C)c1-c1nccc(C(=O)Nc2nnnn2C)c1Cl [Compound 1-58] | 5 (Level 5: growth control rate is above 85%) | 5 (Level 5: growth control rate is above 85%) | 5 (Level 5: growth control rate is above 85%) | 5 (Level 5: growth control rate is above 85%) |
| Cc1ccc(-c2nccc(C(=O)Nc3nnnn3C)c2Cl)c(C)c1 [Compound 1-59] | 5 (Level 5: growth control rate is above 85%) | 5 (Level 5: growth control rate is above 85%) | 5 (Level 5: growth control rate is above 85%) | 5 (Level 5: growth control rate is above 85%) |
| Cc1cc(C)cc(-c2nccc(C(=O)Nc3nnnn3C)c2Cl)c1 [Compound 1-60] | 5 (Level 5: growth control rate is above 85%) | 5 (Level 5: growth control rate is above 85%) | 5 (Level 5: growth control rate is above 85%) | 5 (Level 5: growth control rate is above 85%) |
| Cn1nnnc1NC(=O)c1ccnc(-c2cc(C(C)(C)C)cc(C(C)(C)C)c2)c1Cl [Compound 1-61] | 5 (Level 5: growth control rate is above 85%) | 5 (Level 5: growth control rate is above 85%) | 5 (Level 5: growth control rate is above 85%) | 5 (Level 5: growth control rate is above 85%) |
| Cn1nnnc1NC(=O)c1ccnc(-c2cccc(F)c2F)c1Cl [Compound 1-62] | 5 (Level 5: growth control rate is above 85%) | 5 (Level 5: growth control rate is above 85%) | 5 (Level 5: growth control rate is above 85%) | 5 (Level 5: growth control rate is above 85%) |
| Cn1nnnc1NC(=O)c1ccnc(-c2cc(F)ccc2F)c1Cl [Compound 1-63] | 5 (Level 5: growth control rate is above 85%) | 5 (Level 5: growth control rate is above 85%) | 5 (Level 5: growth control rate is above 85%) | 5 (Level 5: growth control rate is above 85%) |
| Cn1nnnc1NC(=O)c1ccnc(-c2ccc(F)cc2F)c1Cl [Compound 1-64] | 5 (Level 5: growth control rate is above 85%) | 5 (Level 5: growth control rate is above 85%) | 5 (Level 5: growth control rate is above 85%) | 5 (Level 5: growth control rate is above 85%) |
| Cn1nnnc1NC(=O)c1ccnc(-c2cc(F)cc(F)c2)c1Cl [Compound 1-65] | 5 (Level 5: growth control rate is above 85%) | 5 (Level 5: growth control rate is above 85%) | 5 (Level 5: growth control rate is above 85%) | 5 (Level 5: growth control rate is above 85%) |
| Cn1nnnc1NC(=O)c1ccnc(-c2ccc(F)c(F)c2)c1Cl [Compound 1-66] | 5 (Level 5: growth control rate is above 85%) | 5 (Level 5: growth control rate is above 85%) | 5 (Level 5: growth control rate is above 85%) | 5 (Level 5: growth control rate is above 85%) |
| Cc1ccc(F)c(-c2nccc(C(=O)Nc3nnnn3C)c2Cl)c1 [Compound 1-67] | 5 (Level 5: growth control rate is above 85%) | 5 (Level 5: growth control rate is above 85%) | 5 (Level 5: growth control rate is above 85%) | 5 (Level 5: growth control rate is above 85%) |
| Cc1ccc(-c2nccc(C(=O)Nc3nnnn3C)c2Cl)cc1F [Compound 1-68] | 5 (Level 5: growth control rate is above 85%) | 5 (Level 5: growth control rate is above 85%) | 5 (Level 5: growth control rate is above 85%) | 5 (Level 5: growth control rate is above 85%) |
| Cc1ccc(-c2nccc(C(=O)Nc3nnnn3C)c2Cl)c(F)c1 [Compound 1-69] | 5 (Level 5: growth control rate is above 85%) | 5 (Level 5: growth control rate is above 85%) | 5 (Level 5: growth control rate is above 85%) | 5 (Level 5: growth control rate is above 85%) |
| COc1cccc(F)c1-c1nccc(C(=O)Nc2nnnn2C)c1Cl [Compound 1-70] | 5 (Level 5: growth control rate is above 85%) | 5 (Level 5: growth control rate is above 85%) | 5 (Level 5: growth control rate is above 85%) | 5 (Level 5: growth control rate is above 85%) |
| COc1cc(F)cc(-c2nccc(C(=O)Nc3nnnn3C)c2Cl)c1 [Compound 1-71] | 5 (Level 5: growth control rate is above 85%) | 5 (Level 5: growth control rate is above 85%) | 5 (Level 5: growth control rate is above 85%) | 5 (Level 5: growth control rate is above 85%) |
| COc1cccc(-c2nccc(C(=O)Nc3nnnn3C)c2Cl)c1F [Compound 1-72] | 5 (Level 5: growth control rate is above 85%) | 5 (Level 5: growth control rate is above 85%) | 5 (Level 5: growth control rate is above 85%) | 5 (Level 5: growth control rate is above 85%) |
| Cn1nnnc1NC(=O)c1ccnc(-c2ccc(F)cc2C(F)(F)F)c1Cl [Compound 1-73] | 5 (Level 5: growth control rate is above 85%) | 5 (Level 5: growth control rate is above 85%) | 5 (Level 5: growth control rate is above 85%) | 5 (Level 5: growth control rate is above 85%) |
| Cn1nnnc1NC(=O)c1ccnc(-c2ccc(C(F)(F)F)cc2F)c1Cl [Compound 1-74] | 5 (Level 5: growth control rate is above 85%) | 5 (Level 5: growth control rate is above 85%) | 5 (Level 5: growth control rate is above 85%) | 5 (Level 5: growth control rate is above 85%) |
| Cn1nnnc1NC(=O)c1ccnc(-c2cc(C(F)(F)F)ccc2F)c1Cl [Compound 1-75] | 5 (Level 5: growth control rate is above 85%) | 5 (Level 5: growth control rate is above 85%) | 5 (Level 5: growth control rate is above 85%) | 5 (Level 5: growth control rate is above 85%) |
| Cn1nnnc1NC(=O)c1ccnc(-c2ccc(C(F)(F)F)cc2C(F)(F)F)c1Cl [Compound 1-76] | 5 (Level 5: growth control rate is above 85%) | 5 (Level 5: growth control rate is above 85%) | 5 (Level 5: growth control rate is above 85%) | 5 (Level 5: growth control rate is above 85%) |
